Data reported in patent publication US8592174B2, “Peptidase substrates” (bioMérieux, S.A., priority 2009, dated 2013).
Blank lines part the entries; values can stand above or below the compound they belong to.

What was measured:
Assay type in all cases: cell-based
[1] = tested on: Forty-four strains of microorganisms; experiment: pH variation detection on modified chromID Coli medium (Example 6), all strains; conditions: 50 mg/l; 24 h 37° C.; conclusion of Example 6
Experimental: (§1) The media were incubated for 24 hours at 37° C., then the spots formed were examined visually.

[2] = tested on: Enterobacter sakazakii 05 01 020; experiment: pH variation detection on modified chromID Coli medium (Example 6); conditions: 50 mg/l, 24 h 37° C.
Experimental: as §1

[3] = tested on: Pectobacterium atrosepticum 80 12 075; experiment: as above; conditions: 50 mg/l, 24 h 37° C.
Experimental: as §1

[4] = tested on: Staphylococcus aureus 7811049; experiment: Peptidase detection on Columbia medium (Example 5); conditions: 75 mg/l, 48 h 37° C.
Experimental: (§2) After homogenization, the media were distributed into Petri dishes 55 mm in diameter. A medium acting as a growth control (Columbia) and denoted C was also poured.
(§3) Twenty-two strains of microorganisms were inoculated with a 10 μl calibrated loop according to the three-quadrant streaking method using bacterial suspensions at 0.5 McFarland.

Candida glabrata 0408083 = experiment: Peptidase detection on Columbia medium (Example 5); conditions: 75 mg/l, 48 h 37° C.
Experimental: as §2, §3

[5] = tested on: Citrobacter freundii 0006197; experiment: Peptidase detection on Columbia medium (Example 5); conditions: 75 mg/l, 48 h 37° C.
Experimental: as §2, §3

[6] = tested on: Salmonella ser. Typhimurium 0801029; experiment: Peptidase detection on Columbia medium (Example 5); conditions: 75 mg/l, 48 h 37° C.
Experimental: as §2, §3

[7] = tested on: Burkholderia cepacia 7507032; experiment: Peptidase detection on Columbia medium (Example 5); conditions: 75 mg/l, 48 h 37° C.
Experimental: as §2, §3

[8] = tested on: Enterobacter cloacae 0604040; experiment: Peptidase detection on Columbia medium (Example 5); conditions: 75 mg/l, 48 h 37° C.
Experimental: as §2, §3

[9] = tested on: Klebsiella pneumoniae 0008009; experiment: Peptidase detection on Columbia medium (Example 5); conditions: 75 mg/l, 48 h 37° C.
Experimental: as §2, §3

[10] = tested on: Acinetobacter baumannii 0604029; experiment: Peptidase detection on Columbia medium (Example 5); conditions: 75 mg/l, 48 h 37° C.
Experimental: as §2, §3

[11] = tested on: Morganella morganii 9207053; experiment: Peptidase detection on Columbia medium (Example 5); conditions: 75 mg/l, 48 h 37° C.
Experimental: as §2, §3

MRSA 0303033 = experiment: Peptidase detection on Columbia medium (Example 5); conditions: 75 mg/l, 48 h 37° C.
Experimental: as §2, §3

[12] = tested on: Listeria monocytogenes 8812049; experiment: Peptidase detection on Columbia medium (Example 5); conditions: 75 mg/l, 48 h 37° C.
Experimental: as §2, §3

[13] = tested on: Staphylococcus epidermidis 0203050; experiment: Peptidase detection on Columbia medium (Example 5); conditions: 75 mg/l, 48 h 37° C.
Experimental: as §2, §3

[14] = tested on: Pseudomonas aeruginosa 0001001; experiment: Peptidase detection on Columbia medium (Example 5); conditions: 75 mg/l, 48 h 37° C.
Experimental: as §2, §3

Candida albicans 0801025 = experiment: Peptidase detection on Columbia medium (Example 5); conditions: 75 mg/l, 48 h 37° C.
Experimental: as §2, §3

[15] = tested on: Enterococcus faecium NCTC 7 171; experiment: Peptidase detection on Columbia medium (Example 2); design: key to Growth: NG: No growth; 0.5: weak growth; 1: moderate growth; 2: good growth; key to Fluo. / Color / Color post-acid.: —: no color; conditions: 40 mg in 400 ml Columbia; 24 h 37° C.
[16] = tested on: Enterobacter cloacae NCTC 11 936; experiment: Peptidase detection on Columbia medium (Example 2); design: key to Growth: NG: No growth; 0.5: weak growth; 1: moderate growth; 2: good growth; conditions: 40 mg in 400 ml Columbia; 24 h 37° C.
Experimental: (§4) The 6 media were distributed into Petri dishes 90 mm in diameter, in a proportion of 20 ml per dish.
(§5) Seventeen strains of microorganisms stemming from collections and belonging to various species of bacteria and yeasts are inoculated in spots of approximately 10 000 colony-forming units.
(§6) The media are incubated for 24 hours at 37° C., and then the colonies formed are examined visually, with or without the addition of acid and under a UV lamp at 365 nm.

[17] = tested on: Staphylococcus aureus NCTC 6 571; experiment: Peptidase detection on Columbia medium (Example 2); design: key to Growth: NG: No growth; 0.5: weak growth; 1: moderate growth; 2: good growth; key to Fluo. / Color / Color post-acid.: —: no color; conditions: 40 mg in 400 ml Columbia; 24 h 37° C.
[18] = tested on: Escherichia coli NCTC 10 418; experiment: Peptidase detection on Columbia medium (Example 2); design: key to Growth: NG: No growth; 0.5: weak growth; 1: moderate growth; 2: good growth; conditions: 40 mg in 400 ml Columbia; 24 h 37° C.
Experimental: as §4, §5, §6

[19] = tested on: Salmonella typhimurium NCTC 74; experiment: Peptidase detection on Columbia medium (Example 2); design: key to Growth: NG: No growth; 0.5: weak growth; 1: moderate growth; 2: good growth; conditions: 40 mg in 400 ml Columbia; 24 h 37° C.
[20] = tested on: Staphylococcus aureus NCTC 11 939; experiment: Peptidase detection on Columbia medium (Example 2); design: key to Growth: NG: No growth; 0.5: weak growth; 1: moderate growth; 2: good growth; key to Fluo. / Color / Color post-acid.: —: no color; conditions: 40 mg in 400 ml Columbia; 24 h 37° C.
Experimental: as §4, §5, §6

[21] = tested on: Serratia marcescens NCTC 10 211; experiment: Peptidase detection on Columbia medium (Example 2); design: key to Growth: NG: No growth; 0.5: weak growth; 1: moderate growth; 2: good growth; conditions: 40 mg in 400 ml Columbia; 24 h 37° C.
[22] = tested on: Pseudomonas aeruginosa NCTC 10 662; experiment: Peptidase detection on Columbia medium (Example 2); design: key to Growth: NG: No growth; 0.5: weak growth; 1: moderate growth; 2: good growth; conditions: 40 mg in 400 ml Columbia; 24 h 37° C.
Experimental: as §4, §5, §6

[23] = tested on: Candida glabrata NCPF 3 943; experiment: Peptidase detection on Columbia medium (Example 2); design: key to Growth: NG: No growth; 0.5: weak growth; 1: moderate growth; 2: good growth; key to Fluo. / Color / Color post-acid.: —: no color; conditions: 40 mg in 400 ml Columbia; 24 h 37° C.
Experimental: as §4, §5, §6

[24] = tested on: Staphylococcus epidermidis NCTC 11 047; experiment: Peptidase detection on Columbia medium (Example 2); design: key to Growth: NG: No growth; 0.5: weak growth; 1: moderate growth; 2: good growth; key to Fluo. / Color / Color post-acid.: —: no color; conditions: 40 mg in 400 ml Columbia; 24 h 37° C.
Experimental: as §4, §5, §6

Structure (SMILES): Nc1ccc(C=Cc2ccnc3ccccc23)cc1
toxicity [1]: does not exhibit any particular toxicity
Coloration strength [2]: −
Growth ([2]; control C: ++): ++
Coloration strength [3]: −
Growth ([3]; control C: −): −

Color [5]: orange
Coloration strength [5]: ++
Growth ([5]; control C: ++): ++
Color [6]: −
Coloration strength [6]: −
Growth ([6]; control C: ++): ++
Color [7]: −
Coloration strength [7]: −
Growth ([7]; control C: ++): ++
Color [8]: orange
Coloration strength [8]: +
Growth ([8]; control C: ++): ++
Color [9]: orange
Coloration strength [9]: ++
Growth ([9]; control C: ++): ++
Color [10]: orange
Coloration strength [10]: ++
Growth ([10]; control C: ++): ++
Color [11]: orange
Coloration strength [11]: ++
Growth ([11]; control C: ++): ++
Color (MRSA 0303033): orange
Coloration strength (MRSA 0303033): ++
Growth (MRSA 0303033; control C: ++): ++
Color [12]: orange
Coloration strength [12]: ++
Growth ([12]; control C: +): +
Color [14]: orange
Coloration strength [14]: ++
Growth ([14]; control C: ++): ++
Structure (SMILES): C[C@H](N)C(=O)Nc1ccc(C=Cc2cc[n+](C)c3ccccc23)cc1.Cl.[Cl-] [L-alanyl-4-(4′-amidostyryl)-N-methylquinolinium (dichloride)]
Color [4]: orange
Coloration strength [4]: +
Growth ([4]; control C: ++): ++
Color (Candida glabrata 0408083): −
Coloration strength (Candida glabrata 0408083): −
Growth (Candida glabrata 0408083; control C: +): +
Color [13]: orange
Coloration strength [13]: +
Growth ([13]; control C: ++): ++
Color (Candida albicans 0801025): −
Coloration strength (Candida albicans 0801025): −
Growth (Candida albicans 0801025; control C: ++): ++

Color [15]: —
Growth [15]: 2
Color [16]: Orange
Growth [16]: 2
Color [19]: Orange
Growth [19]: 2
Color [21]: Orange
Growth [21]: 2
Color [22]: Orange
Growth [22]: 2
Structure (SMILES): C[C@H](N)C(=O)N[C@@H](C)C(=O)N[C@@H](C)C(=O)Nc1ccc(C=Cc2cc[n+](C)c3ccccc23)cc1.Cl.[Cl-] [Tri-Ala-ASQM^+, L-alanyl-L-alanyl-L-alanyl-4-(4′-amidostyryl)-N-methylquinolinium (dichloride)]
Color [17]: —
Growth [17]: 2
Color [18]: Orange
Growth [18]: 2
Color [20]: —
Growth [20]: 2
Color [23]: —
Growth [23]: 2
Color [24]: —
Growth [24]: 2
